Test results published in patent EP1360961A1, “Use of antimicrobial peptides for potentiating the activity of antimicrobial agents” (AM-Pharma B.V., priority 2002, dated 2003).

Tests used:
[1] = test system: fluconazole-resistant C. albicans; assay: In vitro assay for candidacidal activity of hLF-derived peptides and/or fluconazole (co-incubation, CFU count); format: cell-based; conditions: 1×10^6 CFU/ml, 2 h at 37°C; noncandidacidal peptide concentrations; fluconazole 100-200 µg/ml; Fig. 1
Method: • Figure 1 - Candidacidal activity of combinations of noncandidacidal concentrations of hLF(1-11), an N-terminal peptide of human lactoferrin and 200 µg/ml fluconazole (closed bars), 150 µg/ml fluconazole (black dotted bars), 100 µg/ml fluconazole (white dotted bars) or without this triazole (open bars). […] In short, 1×10^6 CFU fluconazole-resistant C. albicans/ml were incubated with combinations of hLF(1-11) and fluconazole for 2 h at 37°C and then the number of surviving Candida was determined microbiologically. […] In short, 1×10^6 CFU Candida/ml were preincubated for 5 min at 37°C with (8 µM) hLF(1-11) or (200 µg/ml) fluconazole, washed and then incubated for 2 h at 37°C with (200 µg/ml) fluconazole or (8 µM) hLF(1-11), respectively. As controls, Candida cells were incubated for 2 h at 37°C with (8 µM) hLF(1-11), (200 µg/ml) fluconazole, the combination of (8 µM) hLF(1-11) and (200 µg/ml) fluconazole or no agent. Results are means plus SD of at least three independent experiments.
Assay for candidacidal activity of hLF-derived peptides and fluconazole. […] After a 2 h incubation at 37°C with hLF peptides and/or fluconazole the number of viable blastoconidia was determined by plating serial dilutions of each sample on Sabouraud agar. Results are expressed as colony forming units (CFU) per ml.

[2] = test system: Fluconazole-resistant C. albicans strain Y01-19; assay: E-test for fluconazole resistance; format: cell-based; conditions: Candida albicans
Method: Fluconazole. Fluconazole (Pfizer Inc. New York, NY) was dissolved at a concentration of 1 mg/ml of dimethylsulfoxide (Fluka Chemie GmbH, Sigma-Aldrich Chemie BV, Zwijndrecht, The Netherlands) and stored at -20°C until use. From this stock solution appropriate concentrations were prepared in 10 mM of sodium phosphate buffer (pH 7.4), further referred to as NaPB. Source of C. albicans strain. Fluconazole-resistant C. albicans strain Y01-19 was purchased from Pfizer (Groton, Conn.). […] Fluconazole resistance (M.I.C.>256 µg/ml) was evaluated using the E-test (Oxoid Unipath Ltd., Basingstoke, UK). Yeasts were cultured overnight in Sabouraud broth (Oxoid) at 37°C and sub-cultured for 2,5 h on a rotary wheel at 37°C.

With `OC(Cn1cncn1)(Cn1cncn1)c1ccc(F)cc1F` [Fluconazole] the candidacidal activity [1] was “without effect” and the MIC [2] was over 256 µg/mL.
